The text below walks through data of publication PMC6316713, “Design, Synthesis, Experimental and Theoretical Characterization of a New Multitarget 2-Thienyl-N-Acylhydrazone Derivative” (Pharmaceuticals, 2018).

In one experiment the target is T1, PDE4D3 (Homo sapiens, UniProt Q08499).
T1 construct: gene PDE4D; isoform PDE4D3, human recombinant
The experiment can be described thus: IMAP FP PDE assay, % inhibition at […]. The experiment is classed as biochemical.

The target in a further experiment is T2, PDE4B1 (Homo sapiens, UniProt Q07343).
T2 construct: gene PDE4B; isoform PDE4B1, human recombinant
Put plainly: IMAP FP PDE assay, % inhibition at […]. The experiment is classed as biochemical. The conditions noted are these: read-out: PDE4B1 ^a.

Experiment [1] addresses T3, PDE4A1A (Homo sapiens, UniProt P27815).
T3 construct: gene PDE4A; isoform PDE4A1A, human recombinant
Put plainly: IMAP FP PDE assay (FAM-cAMP), concentration-response. The experiment is classed as biochemical.

A further experiment concerns the target T4, adenosine A2A receptor (Homo sapiens, UniProt P29274).
T4 construct: gene ADORA2A; human recombinant, expressed in HEK 293 cells
Put plainly: radioligand displacement with [3H]-CGS21680. The format is binding. On the technique in general: In a radioligand displacement assay an active substance lowers the binding of a labelled ligand.

In experiment [2] the target is T3, PDE4A1A. Put plainly: IMAP FP PDE assay, % inhibition at […]. The experiment is classed as biochemical.

T3 sequence (P27815 265-886 limits assumed): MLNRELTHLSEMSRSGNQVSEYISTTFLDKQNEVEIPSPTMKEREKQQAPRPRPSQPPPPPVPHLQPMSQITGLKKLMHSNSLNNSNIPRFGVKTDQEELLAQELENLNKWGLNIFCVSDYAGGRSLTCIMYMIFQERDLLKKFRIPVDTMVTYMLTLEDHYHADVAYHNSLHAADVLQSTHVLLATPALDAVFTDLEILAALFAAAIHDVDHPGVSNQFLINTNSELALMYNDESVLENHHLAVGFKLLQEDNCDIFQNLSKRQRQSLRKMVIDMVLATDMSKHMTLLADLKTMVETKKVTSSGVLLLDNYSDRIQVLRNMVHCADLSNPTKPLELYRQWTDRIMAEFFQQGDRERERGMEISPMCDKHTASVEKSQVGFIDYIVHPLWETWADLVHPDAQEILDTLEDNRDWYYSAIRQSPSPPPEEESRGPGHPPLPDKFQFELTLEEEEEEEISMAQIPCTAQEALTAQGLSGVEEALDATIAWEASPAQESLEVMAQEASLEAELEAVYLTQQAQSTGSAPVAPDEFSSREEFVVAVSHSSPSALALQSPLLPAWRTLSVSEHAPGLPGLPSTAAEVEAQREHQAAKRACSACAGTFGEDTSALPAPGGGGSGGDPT
T2 sequence (Q07343 whole entry, canonical isoform): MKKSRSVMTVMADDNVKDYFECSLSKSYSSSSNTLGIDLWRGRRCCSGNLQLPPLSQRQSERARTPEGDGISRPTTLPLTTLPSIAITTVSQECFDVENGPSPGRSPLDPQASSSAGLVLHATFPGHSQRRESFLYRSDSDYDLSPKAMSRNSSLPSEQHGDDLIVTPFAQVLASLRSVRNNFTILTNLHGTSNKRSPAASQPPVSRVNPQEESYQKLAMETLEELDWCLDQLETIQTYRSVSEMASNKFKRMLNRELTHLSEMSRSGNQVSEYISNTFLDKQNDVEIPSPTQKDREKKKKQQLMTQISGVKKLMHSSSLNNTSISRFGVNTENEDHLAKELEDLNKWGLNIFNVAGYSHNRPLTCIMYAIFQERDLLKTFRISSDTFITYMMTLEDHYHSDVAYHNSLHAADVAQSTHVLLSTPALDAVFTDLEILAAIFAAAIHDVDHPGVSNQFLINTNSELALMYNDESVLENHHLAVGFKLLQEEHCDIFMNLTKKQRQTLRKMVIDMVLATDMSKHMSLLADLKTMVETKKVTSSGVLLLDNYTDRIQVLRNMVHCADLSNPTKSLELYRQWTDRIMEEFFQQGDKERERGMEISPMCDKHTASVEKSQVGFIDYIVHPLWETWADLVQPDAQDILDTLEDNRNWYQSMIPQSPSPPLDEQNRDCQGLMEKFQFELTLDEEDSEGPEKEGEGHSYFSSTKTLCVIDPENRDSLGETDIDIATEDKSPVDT
T4 sequence (P29274 whole entry): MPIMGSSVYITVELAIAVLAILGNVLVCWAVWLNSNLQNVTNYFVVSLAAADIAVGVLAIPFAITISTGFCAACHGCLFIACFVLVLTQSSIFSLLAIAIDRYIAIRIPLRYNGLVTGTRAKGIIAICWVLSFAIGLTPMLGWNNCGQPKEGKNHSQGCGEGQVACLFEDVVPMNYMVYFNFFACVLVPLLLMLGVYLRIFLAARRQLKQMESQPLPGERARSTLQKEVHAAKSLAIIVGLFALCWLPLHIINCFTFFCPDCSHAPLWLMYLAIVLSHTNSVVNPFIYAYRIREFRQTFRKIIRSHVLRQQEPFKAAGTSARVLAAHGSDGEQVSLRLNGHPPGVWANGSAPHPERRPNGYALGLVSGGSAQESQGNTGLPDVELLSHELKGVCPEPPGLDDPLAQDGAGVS
T1 sequence (Q08499 153-809): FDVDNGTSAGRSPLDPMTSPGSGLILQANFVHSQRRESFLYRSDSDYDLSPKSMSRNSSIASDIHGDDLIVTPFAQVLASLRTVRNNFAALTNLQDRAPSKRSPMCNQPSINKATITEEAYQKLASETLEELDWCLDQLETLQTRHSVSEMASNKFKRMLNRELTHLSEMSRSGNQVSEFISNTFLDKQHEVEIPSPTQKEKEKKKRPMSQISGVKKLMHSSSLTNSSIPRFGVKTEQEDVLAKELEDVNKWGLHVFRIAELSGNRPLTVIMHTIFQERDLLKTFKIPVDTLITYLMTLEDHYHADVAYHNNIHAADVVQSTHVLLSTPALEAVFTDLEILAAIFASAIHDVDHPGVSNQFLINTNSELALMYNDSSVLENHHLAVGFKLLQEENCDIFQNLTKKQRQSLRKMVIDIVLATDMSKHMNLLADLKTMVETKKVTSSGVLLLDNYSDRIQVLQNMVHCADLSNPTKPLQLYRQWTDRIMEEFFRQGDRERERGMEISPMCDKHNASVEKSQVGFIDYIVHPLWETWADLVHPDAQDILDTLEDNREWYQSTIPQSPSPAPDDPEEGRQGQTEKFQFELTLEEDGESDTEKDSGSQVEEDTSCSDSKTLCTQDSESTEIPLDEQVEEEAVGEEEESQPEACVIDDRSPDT

As usually defined, the IC50 is the concentration that inhibits the measured activity by half. A high value points to weaker potency in that assay. By Ki is commonly meant a dissociation constant, usually derived from enzyme kinetics or from competition with a known ligand. Lower therefore signals higher affinity. Consider `COc1ccc(/C=N/N(C)C(=O)c2cccs2)cc1OC` [compound 4, LASSBio-1835], for which the inhibition at 10 µM on PDE4D3 amounted to 40%; on PDE4B1, 44%. On PDE4A1A [1], the 50% inhibitory concentration (IC50) is 1080 nM. Besides, the Ki at adenosine A2A receptor is 1500 nM.

For the molecule `COc1ccc(/C=N/NC(=O)c2cccs2)cc1OC` [compound 3, LASSBio-1834], the inhibition at 10 µM at PDE4B1 was 48%; on PDE4A1A [2], 53%.
